Laboratory results: ChEMBL document CHEMBL1151495, “Activity of new penems against defined MRSA strains” (1993)
≈ marks a conversion by molar mass, not a printed value.

Key:
Assay type in all cases: functional
[1] = test system: Staphylococcus aureus; assay: In vitro minimum inhibitory concentration against Staphylococcus aureus SN 43.
[2] = test system: Staphylococcus aureus; assay: In vitro minimum inhibitory concentration against Staphylococcus aureus SN 7.
[3] = test system: Staphylococcus aureus; assay: In vitro minimum inhibitory concentration against Staphylococcus aureus CDC1.
[4] = test system: Staphylococcus aureus; assay: In vitro minimum inhibitory concentration against Staphylococcus aureus COL.

C[C@@H](O)[C@H]1C(=O)N2C(C(=O)O)=C(COC(=O)c3ccc4ccc5ccccc5c4c3)S[C@H]12
MIC [1]: 6.25 µg/mL (≈ 13.9 µM)
MIC [2]: < 0.011 µg/mL
MIC [3]: < 0.011 µg/mL
MIC [4]: 6.25 µg/mL (≈ 13.9 µM)

C[C@@H](O)[C@H]1C(=O)N2C(C(=O)O)=C(COc3ccccc3)S[C@H]12
MIC [1]: 100 µg/mL (≈ 311 µM)
MIC [2]: 50 µg/mL (≈ 156 µM)
MIC [3]: 0.39 µg/mL (≈ 1.21 µM)
MIC [4]: 50 µg/mL (≈ 156 µM)

C[C@@H](O)[C@H]1C(=O)N2C(C(=O)O)=C(COC(=O)c3ccc4ccccc4c3)S[C@H]12
MIC [1]: 6.25 µg/mL (≈ 15.6 µM)
MIC [2]: 0.39 µg/mL (≈ 0.976 µM)
MIC [3]: 0.09 µg/mL (≈ 0.225 µM)
MIC [4]: 12.5 µg/mL (≈ 31.3 µM)

C[C@@H](O)[C@H]1C(=O)N2C(C(=O)O)=C(COc3cncc4ccccc34)S[C@H]12
MIC [1]: 12.5 µg/mL (≈ 33.6 µM)
MIC [2]: 3.12 µg/mL (≈ 8.38 µM)
MIC [3]: 0.19 µg/mL (≈ 0.51 µM)
MIC [4]: 6.25 µg/mL (≈ 16.8 µM)

C[C@@H](O)[C@H]1C(=O)N2C(C(=O)O)=C(COC(=O)c3ccc4c(ccc5ccccc54)c3)S[C@H]12
MIC [1]: 6.25 µg/mL (≈ 13.9 µM)
MIC [2]: 0.09 µg/mL (≈ 0.2 µM)
MIC [3]: 0.022 µg/mL (≈ 0.0489 µM)
MIC [4]: 3.12 µg/mL (≈ 6.94 µM)

C[C@@H](O)[C@H]1C(=O)N2C(C(=O)O)=C(COC(=O)c3cccnc3)S[C@H]12
MIC [1]: 100 µg/mL (≈ 285 µM)
MIC [2]: 0.19 µg/mL (≈ 0.542 µM)
MIC [3]: 0.09 µg/mL (≈ 0.257 µM)
MIC [4]: 50 µg/mL (≈ 143 µM)

C[C@@H](O)[C@H]1C(=O)N2C(C(=O)O)=C(COC(=O)c3ccccc3)S[C@H]12
MIC [1]: 50 µg/mL (≈ 143 µM)
MIC [2]: 0.39 µg/mL (≈ 1.12 µM)
MIC [3]: 0.09 µg/mL (≈ 0.258 µM)
MIC [4]: 25 µg/mL (≈ 71.6 µM)

C[C@@H](O)[C@H]1C(=O)N2C(C(=O)O)=C(COC(=O)c3cn(C4CC4)c4cc(N5CCNCC5)c(F)cc4c3=O)S[C@H]12
MIC [1]: 50 µg/mL (≈ 89.5 µM)
MIC [2]: 1.56 µg/mL (≈ 2.79 µM)
MIC [3]: 0.39 µg/mL (≈ 0.698 µM)
MIC [4]: 6.25 µg/mL (≈ 11.2 µM)

C[C@@H](O)[C@H]1C(=O)N2C(C(=O)O)=C(COc3cnccn3)S[C@H]12
MIC [1]: > 100 µg/mL
MIC [2]: 0.39 µg/mL (≈ 1.21 µM)
MIC [3]: 0.19 µg/mL (≈ 0.588 µM)
MIC [4]: 100 µg/mL (≈ 309 µM)

C[C@@H](O)[C@H]1C(=O)N2C(C(=O)O)=C(COc3cncc(Cl)c3)S[C@H]12
MIC [1]: 50 µg/mL (≈ 140 µM)
MIC [2]: 0.78 µg/mL (≈ 2.19 µM)
MIC [3]: 0.09 µg/mL (≈ 0.252 µM)
MIC [4]: 25 µg/mL (≈ 70.1 µM)

C[C@@H](O)[C@H]1C(=O)N2C(C(=O)O)=C(COc3c(I)cc(Cl)c4cccnc34)S[C@H]12
MIC [1]: 25 µg/mL (≈ 46.9 µM)
MIC [2]: 0.78 µg/mL (≈ 1.46 µM)
MIC [3]: 0.09 µg/mL (≈ 0.169 µM)
MIC [4]: 6.25 µg/mL (≈ 11.7 µM)

C[C@@H](O)[C@H]1C(=O)N2C(C(=O)O)=C(COC(=O)c3cnccn3)S[C@H]12
MIC [1]: > 100 µg/mL
MIC [2]: 0.39 µg/mL (≈ 1.11 µM)
MIC [3]: 0.19 µg/mL (≈ 0.541 µM)
MIC [4]: 100 µg/mL (≈ 285 µM)

C[C@@H](O)[C@H]1C(=O)N2C(C(=O)O)=C(COc3cccnc3)S[C@H]12
MIC [1]: 100 µg/mL (≈ 310 µM)
MIC [2]: 0.78 µg/mL (≈ 2.42 µM)
MIC [3]: 0.19 µg/mL (≈ 0.589 µM)
MIC [4]: 100 µg/mL (≈ 310 µM)

C[C@@H](O)[C@H]1C(=O)N2C(C(=O)O)=C(COC(=O)c3cnc4ccccc4c3)S[C@H]12
MIC [1]: 12.5 µg/mL (≈ 31.2 µM)
MIC [2]: 0.19 µg/mL (≈ 0.475 µM)
MIC [3]: 0.09 µg/mL (≈ 0.225 µM)
MIC [4]: 6.25 µg/mL (≈ 15.6 µM)

CC(O)[C@H]1C(=O)N2C(C(=O)O)=C(SCCNC=N)C[C@H]12.O (single isomer, unassigned) [IMIPENEM]
MIC [1]: 25 µg/mL
MIC [2]: 0.19 µg/mL
MIC [3]: 0.09 µg/mL
MIC [4]: 25 µg/mL

O=C(O)c1cn(C2CC2)c2cc(N3CCNCC3)c(F)cc2c1=O [CIPROFLOXACIN]
MIC [2]: 0.78 µg/mL (≈ 2.35 µM)
MIC [3]: 0.39 µg/mL (≈ 1.18 µM)

C[C@@H](O)[C@H]1C(=O)N2C(C(=O)O)=C(S[C@@H]3CN[C@H](C(=O)N(C)C)C3)[C@H](C)[C@H]12 [MEROPENEM]
MIC [1]: 25 µg/mL (≈ 65.2 µM)
MIC [2]: 1.56 µg/mL (≈ 4.07 µM)
MIC [3]: 0.19 µg/mL (≈ 0.495 µM)
MIC [4]: 100 µg/mL (≈ 261 µM)

COc1cccc(OC)c1C(=O)N[C@@H]1C(=O)N2[C@@H]1SC(C)(C)[C@@H]2C(=O)O [METHICILLIN]
MIC [1]: > 100 µg/mL
MIC [2]: 6.25 µg/mL (≈ 16.4 µM)
MIC [3]: 3.12 µg/mL (≈ 8.2 µM)
MIC [4]: > 100 µg/mL

C[C@@H](O)[C@H]1C(=O)N2C(C(=O)O)=C(COC(N)=O)S[C@H]12 [RITIPENEM]
MIC [1]: 100 µg/mL (≈ 347 µM)
MIC [2]: 0.39 µg/mL (≈ 1.35 µM)
MIC [3]: 0.19 µg/mL (≈ 0.659 µM)
MIC [4]: 100 µg/mL (≈ 347 µM)
